The text below walks through data of patent publication US20240116985A1, “STAPLED PEPTIDES AND METHODS THEREOF” (priority 2020, published 2024).

Read-outs that look alike come from different tables or passages of the source.

This assay concerns the target T1, full-length beta-Catenin (Uniprot ID P35222) (Homo sapiens, UniProt P35222).
T1 construct: 10 nM full-length beta-Catenin (Uniprot ID P35222)
T1 sequence (P35222 1-781): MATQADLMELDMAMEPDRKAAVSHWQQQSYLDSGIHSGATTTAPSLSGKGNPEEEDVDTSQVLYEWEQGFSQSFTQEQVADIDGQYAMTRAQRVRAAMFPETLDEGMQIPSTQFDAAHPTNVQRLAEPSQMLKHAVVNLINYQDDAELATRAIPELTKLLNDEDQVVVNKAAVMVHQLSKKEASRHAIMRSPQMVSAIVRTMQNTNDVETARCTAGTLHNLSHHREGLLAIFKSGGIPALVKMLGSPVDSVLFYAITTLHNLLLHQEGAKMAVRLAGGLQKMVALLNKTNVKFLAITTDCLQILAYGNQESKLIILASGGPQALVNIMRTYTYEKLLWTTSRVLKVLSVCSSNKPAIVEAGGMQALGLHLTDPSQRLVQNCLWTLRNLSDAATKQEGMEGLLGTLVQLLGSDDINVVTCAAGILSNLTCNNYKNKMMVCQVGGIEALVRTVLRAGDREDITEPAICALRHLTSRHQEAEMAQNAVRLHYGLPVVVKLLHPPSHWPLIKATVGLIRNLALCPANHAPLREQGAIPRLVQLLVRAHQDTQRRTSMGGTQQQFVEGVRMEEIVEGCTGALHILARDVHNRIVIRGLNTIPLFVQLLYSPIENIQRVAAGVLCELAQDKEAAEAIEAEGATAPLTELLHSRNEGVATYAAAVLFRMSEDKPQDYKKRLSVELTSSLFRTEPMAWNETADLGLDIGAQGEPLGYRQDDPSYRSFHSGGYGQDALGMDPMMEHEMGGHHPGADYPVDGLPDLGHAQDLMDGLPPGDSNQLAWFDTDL
In words: Fluorescence polarization IC50 (beta-catenin / 5FAM-TCF4 10-53 competition). The note with it: fluorescence polarization. The format is binding. (Polarisation of emitted light reports the rotation of a fluorescent probe.)

Where [1] appears, read: beta-catenin, read-out: FP EC50.

As for `CC(=O)N1CCC[C@]12CC=CCCCC1(CCCC=CCCCOC(=O)N3CC[C@@](C(=O)N[C@@H](Cc4ccsc4)C(=O)N[C@@H](Cc4c[nH]c5cc(Cl)ccc45)C(=O)N[C@@H](CCC(N)=O)C(N)=O)(C3)NC(=O)[C@H](CC(C)C)NC(=O)[C@H](Cc3ccccc3)NC(=O)[C@H](C)NC(=O)[C@H](C)NC(=O)[C@H](CC(=O)O)NC(=O)[C@H](CC(=O)O)NC1=O)NC(=O)[C@H](CC(C)(C)C)NC(=O)[C@H](CC(=O)O)NC2=O` (stereo partly drawn) [I-1435, Ac-PL3-Asp-Npg-B5-Asp-Asp-Ala-Ala-Phe-Leu-PyrS2-3Thi-6C1W-Gln-NH2], the IC50 (read-out: beta-Catenin FP IC50) amounted to 90 nM.
Still for that read-out and setting: the same measure for `CC(=O)N1CCC[C@]12CC=CCCCC1(CCCC=CCCCOC(=O)N3CC[C@@](C(=O)N[C@@H](Cc4ccsc4)C(=O)N[C@@H](Cc4c[nH]c5cc(Cl)ccc45)C(=O)N[C@@H](CO)C(N)=O)(C3)NC(=O)[C@H](CC(C)C)NC(=O)[C@H](Cc3ccccc3)NC(=O)[C@H](C)NC(=O)[C@H](C)NC(=O)[C@H](CC(=O)O)NC(=O)[C@H](CC(=O)O)NC1=O)NC(=O)[C@H](CC(C)(C)C)NC(=O)[C@H](CC(=O)O)NC2=O` (stereo partly drawn) [I-1436, Ac-PL3-Asp-Npg-B5-Asp-Asp-Ala-Ala-Phe-Leu-PyrS2-3Thi-6C1W-Ser-NH2]: 121 nM; for `CC(=O)N1CCC[C@]12CC=CCCCC1(CCCC=CCCCOC(=O)N3CC[C@@](C(=O)N[C@@H](Cc4ccsc4)C(=O)N[C@@H](Cc4csc5ccccc45)C(=O)N[C@@H](CCC(N)=O)C(N)=O)(C3)NC(=O)[C@H](CC(C)C)NC(=O)[C@H](Cc3ccccc3)NC(=O)[C@H](C)NC(=O)[C@H](C)NC(=O)[C@H](Cc3ccccc3)NC(=O)[C@H](CC(=O)O)NC1=O)NC(=O)[C@H](CC(C)(C)C)NC(=O)[C@H](CC(=O)O)NC2=O` (stereo partly drawn) [I-1441, Ac-PL3-Asp-Npg-B5-Asp-Phe-Ala-Ala-Phe-Leu-PyrS2-3Thi-BztA-Gln-NH2]: 327 nM; for `CC(=O)N1CCC[C@]12CC=CCCCC1(CCCC=CCCCOC(=O)N3CC[C@@](C(=O)N[C@@H](Cc4ccsc4)C(=O)N[C@@H](Cc4csc5ccccc45)C(=O)N[C@@H](CCC(N)=O)C(N)=O)(C3)NC(=O)[C@H](CC(C)C)NC(=O)[C@H](Cc3ccccc3)NC(=O)[C@H](C)NC(=O)[C@H](C)NC(=O)[C@H](CC(C)C)NC(=O)[C@H](CC(=O)O)NC1=O)NC(=O)[C@H](CC(C)(C)C)NC(=O)[C@H](CC(=O)O)NC2=O` (stereo partly drawn) [I-1444, Ac-PL3-Asp-Npg-B5-Asp-Leu-Ala-Ala-Phe-Leu-PyrS2-3Thi-BztA-Gln-NH2]: 6560 nM.
For `CC(=O)N1CCC[C@]12CC=CCCCC1(CCCC=CCCCOC(=O)N3CC[C@@](C(=O)N[C@@H](Cc4ccccc4Cl)C(=O)N[C@@H](Cc4csc5ccccc45)C(=O)N[C@@H](CCC(N)=O)C(N)=O)(C3)NC(=O)[C@H](CC(N)=O)NC(=O)[C@H](Cc3ccccc3)NC(=O)[C@H](C)NC(=O)[C@H](C)NC(=O)[C@H](CN(CC(=O)O)Cc3c(F)c(F)c(F)c(F)c3F)NC(=O)[C@H](CC(=O)O)NC1=O)NC(=O)[C@H](CC(C)(C)C)NC(=O)[C@H](CC(=O)O)NC2=O` (stereo partly drawn) [I-1448, Ac-PL3-Asp-Npg-B5-Asp-[Pfbn]GA-Ala-Ala-Phe-Asn-PyrS2-2C1F-BztA-Gln-NH2], the IC50 was found to be 20 nM under setting [1] and 20 nM (read-out: beta-Catenin FP IC50).
For the compound `CC(=O)N1CCC[C@]12CC=CCCCC1(CCCC=CCCCOC(=O)N3CC[C@@](C(=O)N[C@@H](Cc4ccccc4Cl)C(=O)N[C@@H](Cc4csc5ccccc45)C(=O)N[C@@H](CCC(N)=O)C(N)=O)(C3)NC(=O)[C@H](CC(N)=O)NC(=O)[C@H](Cc3ccccc3)NC(=O)[C@H](C)NC(=O)[C@H](C)NC(=O)[C@H](CN(CC(=O)O)Cc3c(F)c(F)c(F)c(F)c3F)NC(=O)[C@H](CC(=O)O)NC1=O)NC(=O)[C@H](CC(C)(C)C)NC(=O)[C@H](CC(=O)O)NC2=O` (stereo partly drawn) [I-1450, Ac-PL3-Asp-Npg-B5-Asp-[Pfbn]GA-Ala-Ala-Phe-Asn-PyrS2-2C1F-BztA-Gln-NH2], the IC50 under setting [1] came to 11 nM and the IC50 (read-out: beta-Catenin FP IC50) worked out at 11 nM.
